# What was measured:
# [1] = system: CVLP-stimulated human CD4-positive T cells; experiment: Restimulating HPV18 CVLP-stimulated T cells with BLCL presenting HPV18 peptide pools (example 6); type: cell-based; conditions: peptide common to two reactive HPV18 pools; CD4/IFNγ
# Experimental: Human T cells (4×10^5) from a non-HLA-typed blood donor were stimulated for 1 week with HPV18 L1ΔCDIE71-53DI CVLPs and HPV18 L1ΔACDIE71-60DI CVLPS, 800 U of human GM-CSF/ml and 500 U of human IL4/ml and also, for a further 5 weeks, with HPV18 L1ΔCDIE71-53DI CVLPs and HPV18 L1ΔCDIE71-6ODI CVLPs at 37° C., with the weekly addition of 1 μg of the CVLPs mixLure (ratio of the two constructs 1:1)/ml and 10^5 antigen-presenting cells (irradiated PMBC), and harvested.
# The 20 mer peptides Q1 to 52 were assembled into peptide pools A to H and 1 to 7, respectively, in accordance with the matrix
# The T cells were then restimulated, at 37° C. and in 100 μl of medium, with the peptide pools and 10^5 antigen-presenting cells (donor-identical BLCL) in the presence of 10 IU of IL2/ml. The quantities of the peptide pools which were used in this connection were such that. 1 μg/ml was added in the case of each individual peptide.
# Cells which were only incubated with buffer served as the negative control while cells incubated with the HPV18 L1 peptide pool and the HPV18 E7 peptide pool, respectively, served as positive controls.
# (§1) 1 μl of monensin was added after an hour. The cells were then incubated at 37° C. for a further 5 hours. After that, the cells were fixed and permeabilized and stained with α-human CD8/APC, with α-human CD4/PerCP and with α-human IFNγ/FITC. The labeling of the cells was analyzed in a FACScan Calibur and the results of the measurements were analyzed using Cellquest software.
# [2] = system: CVLP-stimulated CD8-positive T cells; experiment: Restimulating HPV16 CVLP-stimulated T cells with BLCL presenting HPV16 peptide pools (example 10); type: cell-based, human; conditions: peptide common to two reactive HPV16 pools
# Experimental: (§2) In analogy with example 6, human T cells derived from a non-HLA-typed blood donor were stimulated with HPV16L1ΔC*E71-55 CVLPs and harvested.
# (§3) The T cells were then restimulated, at 37° C. and in 100 μl of medium, with the peptide pools from example 7 and 10^5 antigen-presenting cells (donor-identical BLCL) in the presence of 10 IU of IL2/ml. Use was made, in this connection, of quantities of the peptide pools which was such that 1 μg/ml was added in the case of each individual peptide. Cells which were only incubated with buffer served as the negative control while cells which were incubated with HPV16 L1 peptide pool served as positive controls.
# as §1, with “was examined” for “was analyzed”
# [3] = system: peptide-stimulated murine CD8-positive T cells; experiment: Restimulating HPV18 peptide-stimulated murine T cells with peptide-presenting LKK cells (IFNγ FACScan); type: cell-based, C3H mice; conditions: for proportion of CD8-positive T cells reactive on the basis of IFNγ expression: 1 μg peptide/ml, LKK cells, T cells of HPV18 CVLP-inoculated C3H mice, FIG. 3, 4; for T cell epitope assignment: conclusion from FIG. 3, 4
# Experimental: Murine T cells (4×10^5) derived from C3H mice inoculated with HPV18 L1ΔCDIE71-53DI CVLPs and HPV18 L1ΔCDIE71-6ODI CVLPs were stimulated for 5 weeks with HPV18 L1 or E7 peptide pools at 37° C., with the weekly addition of 1 μg of each individual peptide/ml and 10^5 antigen-presenting cells (irradiated splenocytes), and harvested. The cells were then restimulated, at 37° C. and in 100 μl of medium, with 1 μg of the peptides given on the X axis in FIG. 3/ml and 10^5 antigen-presenting cells (LKK) in the presence of 10 IU of IL2/ml. Cells which were only incubated with buffer served as the negative control.
# 1 μl of monensin (300 μm) was added after an hour. The cells were incubated at 37° C. for a further 5 hours. The cells were then fixed and permeabilized and stained with α-mouse CD8/PE, with α-mouse CD4/cychrome and with α-mouse interferony/FITC. The labeling of the cells was analyzed in a FACScan Calibur and the results of the measurement were analyzed using Cellquest software.
# RMA cells = experiment: 51Cr release: lysing HPV18 peptide-loaded RMA cells (example 17); type: cell-based, murine; conditions: for T cell epitope assignment: conclusion from FIG. 16 upper part; for specific lysis of target cells (51Cr release): peptide-loaded RMA cells, effector:target 20, FIG. 16 upper part
# Experimental: In analogy with example 4, RMA or LKK cells were radioactively labeled with ^51Cr and incubated with the peptides (Q43 and Q44 in the upper part of FIG. 16 and Q49 in the lower part of FIG. 16) which are plotted on the X axis. Cells without peptide served as negative controls. T cells which had previously been stimulated with the peptide pool were then added.
# The lysis of the RMA cells or LKK cells by the T cells was measured by the release of the ^51Cr and calculated as described in example 4.
# [4] = system: CVLP-stimulated T cells (CD4-positive); experiment: Restimulating HPV16 CVLP-stimulated T cells with BLCL presenting pools or P39 (example 9; IFNγ and IL4); type: cell-based, human; conditions: for T cell epitope assignment (TH2): peptide common to two reactive HPV16 pools, CD4/IL4
# Experimental: as §2, §3
# as §1, with “was examined” for “was analyzed”
# human T cells = experiment: Summary of examples 3 to 18: epitopes recognized by human T cells; type: cell-based; conditions: Table 3, HPV16 peptides, species human; TC cytotoxic, TH T helper
# [5] = system: HPV18 L1 peptide pool-stimulated CD8-positive T cells; experiment: Restimulating HPV18 L1 peptide-stimulated T cells with Q9-presenting BLCL (example 8); type: cell-based, human
# Experimental: In analogy with example 3, human T cells (4×10^5) derived from an HLA A24-positive donor were stimulated for 3 weeks with the HPV18 L1 peptide pool, at 37° C., with the weekly addition of 1 μg of each individual peptide/ml and 10^5 antigen-presenting cells (irradiated PMBC), and harvested.
# The cells were then restimulated, at 37° C. in 100 μl of medium, with 10 μg of the HPV18 L1 peptide Q9/ml and 10^5 antigen-presenting cells (donor-identical BLCL) in the presence of 10 IU of IL2/ml. Cells which were only incubated with buffer served as the negative control.
# as §1, with “of monensin (300 μM) was added” for “of monensin was added”, “cells were then fixed and” for “cells were fixed and”, “cells was examined in a” for “cells was analyzed in a”
# [6] = system: HPV18 CVLP-stimulated human T cells; experiment: Restimulating HPV18 CVLP-stimulated T cells with BLCL presenting Q38, Q39, Q46 or Q47 (example 13); type: cell-based; conditions: conclusion from FIG. 12 top right
# Experimental: In analogy with example 6, human T cells (4×10^5) derived from a non-HLA-typed blood donor were stimulated with HPV18L1ΔCDIE71-53DI CVLPs and HPV18L1ΔCDIE71-60DI CVLPs and harvested.
# The T cells were then restimulated, at 37° C. and in 100 μl of medium, with in each case 1 μg of peptide Q38, Q39, Q46 or Q47/ml and 10^5 antigen-presenting cells (donor-identical BLCL) in the presence of 10 IU of IL2/ml. Cells which were only incubated with buffer served as the negative control while cells which were incubated with the HPV18 L1 peptide pool or the E7 peptide pool served as positive controls.
# as §1, with “was examined” for “was analyzed”
# [7] = system: CVLP-stimulated CD8-positive T cells; experiment: Restimulating HPV16 CVLP-stimulated T cells with BLCL presenting HPV16 peptide pools (example 14); type: cell-based, human; conditions: peptide common to two reactive HPV16 pools; CD8/IFNγ
# Experimental: as §2
# The T cells were then restimulated, at 37° C. and in 100 μl of medium, with the peptide pools from example 7 and 10^5 antigen-presenting cells (donor-identical BLCL) in the presence of 10 IU of IL2/ml. Use was made, in this connection, of quantities of the peptide pools which were such that 1 μg/ml was added in the case of each individual peptide. Cells which were only incubated with buffer served as the negative control, while cells which were incubated with the HPV16 L1 or E7 peptide pool served as positive controls.
# as §1, with “was examined” for “was analyzed”
molecule,measurement,setting,value
"MALWRPSDNTVYLPPPSVAR [Q1, HPV18 L1 1-20]",T cell epitope assignment,[1],contain T helper epitopes
GLQYRVFRIHLPDPNKFGFP [P7],T cell epitope assignment,[2],contain a cytotoxic T cell epitope
"YPLGRKFLVQAGMHGPKATL [Q43, HPV18 L1 463-474 and E7 1-8]",proportion of CD8-positive T cells reactive on the basis of IFNγ expression,[3],brought about a restimulation
same,T cell epitope assignment,[3],contain H2k-restricted cytotoxic T cell epitopes
same,T cell epitope assignment,RMA cells,H2b-restricted cytotoxic T cell epitopes
same,specific lysis of target cells (51Cr release),RMA cells,able to efficiently lyse
"RFVTSQAIACQKHTPPAPKE [P39, HPV16 L1 419-438]",T cell epitope assignment (TH1),"[4]; CD4-positive and IFNγ-positive, pools G and 5 and P39 alone",contains a T helper epitope
same,proportion of CD4-positive and IFNγ-positive cells (TH1),"[4]; HPV16 pools or P39, donor-identical BLCL, FIG. 8 top",very high
same,T cell epitope assignment (TH2),[4],contains a TH2 epitope
same,Epitope type,human T cells,"TH1, TH2"
"MHGPKATLQDIVLHLEPQNE [Q44, HPV18 E7 1-20]",proportion of CD8-positive T cells reactive on the basis of IFNγ expression,[3],brought about a restimulation
same,T cell epitope assignment,[3],contain H2k-restricted cytotoxic T cell epitopes
same,T cell epitope assignment,RMA cells,H2b-restricted cytotoxic T cell epitopes
same,specific lysis of target cells (51Cr release),RMA cells,able to efficiently lyse
"SIYNPETQRLVWACAGVEIG [Q9, HPV18 L1 89-108]",proportion of CD8-positive T cells reactive on the basis of IFNγ expression,"[5]; 10 μg Q9/ml, donor-identical BLCL, HLA A24-positive donor, FIG. 7",brought about a restimulation
same,T cell epitope assignment,[5]; conclusion from FIG. 7,contains an HLA A24-restricted cytotoxic T cell epitope
CC[C@H](C)[C@H](NC(=O)[C@H](C)NC(=O)[C@@H](NC(=O)[C@H](CO)NC(=O)[C@H](CCC(N)=O)NC(=O)[C@@H](NC(=O)[C@H](Cc1ccccc1)NC(=O)[C@H](CCCNC(=N)N)NC(=O)[C@H](Cc1ccc(O)cc1)NC(=O)[C@@H](NC(=O)[C@H](CC(=O)O)NC(=O)[C@@H](NC(=O)[C@H](CC(C)C)NC(=O)[C@H](CO)NC(=O)[C@@H](NC(=O)[C@@H](NC(=O)[C@@H]1CCCN1C(=O)[C@@H]1CCCN1C(=O)[C@@H]1CCCN1C(=O)[C@@H]1CCCN1)[C@@H](C)O)[C@@H](C)O)C(C)C)[C@@H](C)O)C(C)C)C(C)C)C(=O)O [Q38],T cell epitope assignment (cytotoxic),[6],contain cytotoxic T cell epitopes
"IYNPETQRL [HPV18 L1 90-98, contained in peptide Q9]",T cell epitope assignment,"[5]; 9mer within Q9, deduced from Q9 result and HLA A24 prediction",HLA A24-restricted cytotoxic T cell epitope
"PYDKLKFWNVDLKEKFSLDL [Q41, HPV18 L1 441-460]",proportion of CD8-positive T cells reactive on the basis of IFNγ expression,[3],brought about a restimulation
same,T cell epitope assignment,[3],contain H2k-restricted cytotoxic T cell epitopes
same,T cell epitope assignment,[1],contain T helper epitopes
"YLPPVPVSKVVSTDEYVART [P2, HPV16 L1 12-31]",T cell epitope assignment,[2],contain a cytotoxic T cell epitope
"GGNKQDIPKVSAYQYRVFRV [Q6, HPV18 L1 56-75]",T cell epitope assignment,[1],contains a T helper epitope
"PPPGGTLEDTYRFVTSQAIA [P38, HPV16 L1 408-427]",T cell epitope assignment (TH2),[4],contains a TH2 epitope
same,Epitope type,human T cells,TH2
"VGHPYFPIKKPNNNKILVPK [P5, HPV16 L1 45-64]",T cell epitope assignment,[2],contain a cytotoxic T cell epitope
same,T cell epitope assignment,[7],contain a cytotoxic T cell epitope

# — patent publication US20040091479A1, “T-cell epitope of the papillomavirus l1 and e7 protein and use thereof in diagnostics and therapy” (priority 2000, published 2004)
